Like-named read-outs stand apart in the source and are kept apart here.
System: P. falciparum (NF54 or 3D7 strain)
Assay: Assay for P. falciparum proliferation in infected human blood cells (SYBR Green)
Assay type: cell-based, Plasmodium falciparum
Settings: NF54 or 3D7 infected human erythrocytes, 72 hours, read-out: EC50 (nM), inhibitory efficacy in delaying P. falciparum proliferation in infected human blood cells
Outline: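 Infected erythrocytes (NF54 or 3D7; final 2.5% hematocrit, 0.3% parasitemia) were incubated with compounds for 72 h at 37 °C in low oxygen (3% O2, 4% CO2, 93% N2).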

[1] = Plasmodium falciparum, Erythrocyte, 72 h

| Structure (SMILES) | EC50 [1] | EC50 |
| --- | --- | --- |
| CN(Cc1cn2c(-c3ccc(OC(F)F)cc3)cnc2cn1)c1ccc(C#N)cc1 [Compound 479, 4-[({3-[4-(difluoromethoxy)phenyl]imidazo[1,2-a]pyrazin-6-yl}methyl)(methyl)amino]benzonitrile] | 35 nM |  |
| COc1ncc(-c2cnc3cnc(C(=O)N(C)c4ccc(C#N)cc4)cn23)cn1 [Compound 333, N-(4-cyanophenyl)-3-(2-methoxypyrimidin-5-yl)-N-methylimidazo[1,2-a]pyrazine-6-carboxamide] | 4130 nM |  |
| CN(C(=O)c1cn2c(-c3ccc(C(F)(F)F)cc3)cnc2cn1)c1ccccc1OC(F)F [Compound 346, N-[2-(difluoromethoxy)phenyl]-N-methyl-3-[4-(trifluoromethyl)phenyl]imidazo[1,2-a]pyrazine-6-carboxamide] | 242 nM |  |
| CN(C(=O)c1cn2c(-c3ccc4cn[nH]c4c3)cnc2cn1)c1ccc(C#N)cc1 [Compound 154, N-(4-cyanophenyl)-3-(1H-indazol-6-yl)-N-methylimidazo[1,2-a]pyrazine-6-carboxamide] | 2690 nM |  |
| CN(C(=O)c1cn2c(-c3cncc(S(N)(=O)=O)c3)cnc2cn1)c1ccc(C#N)cc1 [Compound 184, N-(4-cyanophenyl)-N-methyl-3-(5-sulfamoylpyridin-3-yl)imidazo[1,2-a]pyrazine-6-carboxamide] | > 10000 nM |  |
| CC(C)[C@@H](N)C(=O)Nc1ccc(-c2cnc3cnc(C(=O)N(C)c4ccc(C#N)cc4)cn23)cc1 [Compound 286, 3-{4-[(2R)-2-amino-3-methylbutanamido]phenyl}-N-(4-cyanophenyl)-N-methylimidazo[1,2-a]pyrazine-6-carboxamide] | 402 nM |  |
| Cc1ccc(-c2cnc3cnc(C(=O)N(C)c4ccc(Cl)cc4)cn23)cc1 [Compound 432, N-(4-chlorophenyl)-N-methyl-3-(4-methylphenyl)imidazo[1,2-a]pyrazine-6-carboxamide] | 79 nM |  |
| CN(C(=O)c1cn2c(-c3ccc(C(F)(F)F)cc3)cnc2cn1)c1ccccc1OC(F)(F)F [Compound 40, N-methyl-N-[2-(trifluoromethoxy)phenyl]-3-[4-(trifluoromethyl)phenyl]imidazo[1,2-a]pyrazine-6-carboxamide] | 3320 nM |  |
| COc1ccc(-c2cnc3cnc(C(=O)N(C)c4ccc(Cl)nc4)cn23)cn1 [Compound 336, N-(6-chloropyridin-3-yl)-3-(6-methoxypyridin-3-yl)-N-methylimidazo[1,2-a]pyrazine-6-carboxamide] | 6930 nM |  |
| Cc1noc(-c2ccc(-c3cnc4cnc(C(=O)N(C)c5ccc(C#N)cc5)cn34)cc2)n1 [Compound 339, N-(4-cyanophenyl)-N-methyl-3-[4-(3-methyl-1,2,4-oxadiazol-5-yl)phenyl]imidazo[1,2-a]pyrazine-6-carboxamide] | 1260 nM |  |
| CN(C(=O)c1cn2c(-c3ccc(N4CCCC4)cc3)cnc2cn1)c1ccc(C#N)cc1 [Compound 181, N-(4-cyanophenyl)-N-methyl-3-[4-(pyrrolidin-1-yl)phenyl]imidazo[1,2-a]pyrazine-6-carboxamide] | 723 nM |  |
| CN(C(=O)c1cn2c(-c3ccc(-c4nnc(N)o4)cc3)cnc2cn1)c1ccc(F)cc1 [Compound 227, 3-[4-(5-amino-1,3,4-oxadiazol-2-yl)phenyl]-N-(4-fluorophenyl)-N-methylimidazo[1,2-a]pyrazine-6-carboxamide] | 40 nM |  |
| CN(C(=O)c1cn2c(-c3ccc(NC(=O)CN)nc3)cnc2cn1)c1ccc(C#N)cc1 [Compound 295, 3-[6-(2-aminoacetamido)pyridin-3-yl]-N-(4-cyanophenyl)-N-methylimidazo[1,2-a]pyrazine-6-carboxamide] | 237 nM |  |
| CC(C)Oc1ccc(N(C)C(=O)c2cn3c(-c4ccc(C(F)(F)F)cc4)cnc3cn2)cc1 [Compound 436, N-methyl-N-[4-(propan-2-yloxy)phenyl]-3-[4-(trifluoromethyl)phenyl]imidazo[1,2-a]pyrazine-6-carboxamide] | 9300 nM |  |
| CC(=O)c1cnc2cnc(C(=O)N(C)c3ccc(Cl)nc3)cn12 [Compound 33, 3-acetyl-N-(6-chloropyridin-3-yl)-N-methylimidazo[1,2-a]pyrazine-6-carboxamide] | 4710 nM |  |
| CC(c1ccc(Cl)cc1)N(C)C(=O)c1cn2c(-c3ccc(C(F)(F)F)cc3)cnc2cn1 (centres unmarked) [Compound 405, N-[1-(4-chlorophenyl)ethyl]-N-methyl-3-[4-(trifluoromethyl)phenyl]imidazo[1,2-a]pyrazine-6-carboxamide] | > 8820 nM |  |
| CN(C(=O)c1cn2c(-c3ccc(C(F)(F)F)cc3)cnc2cn1)c1ccc(F)c(Cl)c1 [Compound 32, N-(3-chloro-4-fluorophenyl)-N-methyl-3-[4-(trifluoromethyl)phenyl]imidazo[1,2-a]pyrazine-6-carboxamide] | 135 nM |  |
| COc1ccc(N(C)C(=O)c2cn3c(-c4ccc(C(F)(F)F)cc4)cnc3cn2)nc1 [Compound 353, N-(5-methoxypyridin-2-yl)-N-methyl-3-[4-(trifluoromethyl)phenyl]imidazo[1,2-a]pyrazine-6-carboxamide] | 3900 nM |  |

| Structure (SMILES) | EC50 [1] | EC50 |
| --- | --- | --- |
| CN(C)c1ccc(-c2cnc3cnc(C(=O)N(C)c4ccc(Cl)nc4)cn23)cn1 [Compound 357, N-(6-chloropyridin-3-yl)-3-[6-(dimethylamino)pyridin-3-yl]-N-methylimidazo[1,2-a]pyrazine-6-carboxamide] | 5490 nM |  |
| Cc1cnc(Cl)c(N(C)C(=O)c2cn3c(-c4ccc(C(F)(F)F)cc4)cnc3cn2)c1 [Compound 220, N-(2-chloro-5-methylpyridin-3-yl)-N-methyl-3-[4-(trifluoromethyl)phenyl]imidazo[1,2-a]pyrazine-6-carboxamide] | 4040 nM |  |
| CN(C(=O)c1cn2c(-c3ccc(C(F)(F)F)cc3)cnc2cn1)c1ccc(C#N)c(F)c1 [Compound 126, N-(4-cyano-3-fluorophenyl)-N-methyl-3-[4-(trifluoromethyl)phenyl]imidazo[1,2-a]pyrazine-6-carboxamide] | 125 nM |  |
| CN(C(=O)c1ccc(Cl)nc1)c1cn2c(-c3ccc(C(F)(F)F)cc3)cnc2cn1 [Compound 267, 6-chloro-N-methyl-N-{3-[4-(trifluoromethyl)phenyl]imidazo[1,2-a]pyrazin-6-yl}pyridine-3-carboxamide] | 424 nM |  |
| CN(C(=O)c1cn2c(-c3ccc(C(F)(F)F)cc3)cnc2cn1)c1ccccn1 [Compound 99, N-methyl-N-(pyridin-2-yl)-3-[4-(trifluoromethyl)phenyl]imidazo[1,2-a]pyrazine-6-carboxamide] | 3880 nM |  |
| O=C(c1cn2c(-c3ccc(C(F)(F)F)cc3)cnc2cn1)N1CCOc2ccccc21 [Compound 306, ({3-[4-(trifluoromethyl)phenyl]imidazo[1,2-a]pyrazin-6-yl}carbonyl)-3,4-dihydro-2H-1,4-benzoxazine] |  | 607 nM |
| CN(C(=O)c1cn2c(-c3ccncc3)cnc2cn1)c1ccc(C#N)cc1 [Compound 385, -(4-cyanophenyl)-N-methyl-3-(pyridin-4-yl)imidazo[1,2-a]pyrazine-6-carboxamide] | > 10000 nM |  |
| CN(C(=O)c1cn2c(-c3ccc4[nH]nc(N)c4c3)cnc2cn1)c1ccc(C#N)cc1 [Compound 396, 3-(3-amino-1H-indazol-5-yl)-N-(4-cyanophenyl)-N-methylimidazo[1,2-a]pyrazine-6-carboxamide] | 5720 nM |  |
| CN(C(=O)c1cn2c(-c3ccc(C(F)(F)F)cc3)cnc2cn1)c1ccc(Oc2ccccc2)cc1 [Compound 43, N-methyl-N-(4-phenoxyphenyl)-3-[4-(trifluoromethyl)phenyl]imidazo[1,2-a]pyrazine-6-carboxamide] | > 10000 nM |  |
| CN(C)CCCOc1ccc(-c2cnc3cnc(C(=O)N(C)c4ccc(C#N)cc4)cn23)cn1 [Compound 1, N-(4-cyanophenyl)-3-(6-(3-(dimethylamino)propoxy)pyridin-3-yl)-N-methylimidazo[1,2-a]pyrazine-6-carboxamide] | 477 nM |  |
| CN(C(=O)c1cn2c(-c3ccc(Cl)cc3)cnc2cn1)c1ccc(S(C)(=O)=O)cc1 [Compound 17, 3-(4-chlorophenyl)-N-(4-methanesulfonylphenyl)-N-methylimidazo[1,2-a]pyrazine-6-carboxamide] | 602 nM |  |
| Cc1cccc(-c2cnc3cnc(C(=O)N(C)c4ccc(C#N)cc4)cn23)c1 [Compound 199, N-(4-cyanophenyl)-N-methyl-3-(3-methylphenyl)imidazo[1,2-a]pyrazine-6-carboxamide] | 7320 nM |  |
| CN(C(=O)c1cn2c(-c3ccc(C(C)(C)C#N)cc3)cnc2cn1)c1ccc(C#N)cc1 [Compound 120, -[4-(1-cyano-1-methylethyl)phenyl]-N-(4-cyanophenyl)-N-methylimidazo[1,2-a]pyrazine-6-carboxamide] | 147 nM |  |
| CN(C(=O)c1cn2c(-c3ccc(-c4nnc(N)s4)cc3)cnc2cn1)c1ccc(C#N)cc1 [Compound 74, 3-[4-(5-amino-1,3,4-thiadiazol-2-yl)phenyl]-N-(4-cyanophenyl)-N-methylimidazo[1,2-a]pyrazine-6-carboxamide] | 24 nM |  |
| CN(C(=O)c1cn2c(-c3ccc(C(N)=O)cc3)cnc2cn1)c1ccc(S(C)(=O)=O)cc1 [Compound 172, 3-(4-carbamoylphenyl)-N-(4-methanesulfonylphenyl)-N-methylimidazo[1,2-a]pyrazine-6-carboxamide] | 1130 nM |  |
| CN(C(=O)c1cn2c(-c3ccc(OCC#N)cc3)cnc2cn1)c1ccc(C#N)cc1 [Compound 273, 3-[4-(cyanomethoxy)phenyl]-N-(4-cyanophenyl)-N-methylimidazo[1,2-a]pyrazine-6-carboxamide] | 186 nM |  |
| CN(C(=O)c1cn2c(-c3ccc(-n4cccn4)cc3)cnc2cn1)c1ccc(Cl)nc1 [Compound 330, N-(6-chloropyridin-3-yl)-N-methyl-3-[4-(1H-pyrazol-1-yl)phenyl]imidazo[1,2-a]pyrazine-6-carboxamide] | 1960 nM |  |

— patent publication US20150291598A1 (NOVARTIS AG, priority 2012, published 2015)
